Data on 4 molecules can be found in ChEMBL document CHEMBL1201862, “PubChem BioAssay data set” (2004).

One experiment relates to P388/ADR. The experiment can be described thus: cells. Type of experiment: functional. Particulars: Mus musculus.
In a further experiment the test system is P388. Briefly: cells. Format: functional. Particulars: Mus musculus.
The next experiment deals with SN12K1. The experiment can be described thus: cells. Type of experiment: functional. Particulars: Homo sapiens.
In experiment [1] the test system is Vero. The experiment can be described thus: viability of Vero cells under compound – cytotoxicity control for flavivirus capping enzyme inhibitors (AID 588742). Type of experiment: functional. The following applies: Chlorocebus sabaeus.
The target in experiment [2] is T1, Fatty acid synthase (Homo sapiens, UniProt P49327). The experiment can be described thus: inhibition of human FAS-TE enzyme activity – biochemical, endpoint fluorescence intensity, uHTS hits, dose response (AID 624327).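 Further: fluorescence from hydrolysis of an O-methyl fluorescein acyl ester substrate by the enzyme.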 Type of experiment: functional.
Experiment [3] is described as follows: NIH3T3 cell viability loss – ATP luminescence, mouse fibroblasts, counter-screen, dose response (AID 2010).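 Further: cells exposed to compound for about 90 hours before reading.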 Format: functional, cell-based. (In general: The purpose of a counterscreen is to sort out artefacts and off-target activity.)
Experiment [4] can be described thus: loss of viability in HepG2 cells – cell-based, CellTiter-Glo, cherry-picked, cytotoxicity control for Shn3 inhibitor project, dose response (AID 624134). Type of experiment: functional.
Another experiment deals with Streptococcus. The experiment can be described thus: GAS UMAA2166 growth inhibition – luminescence, BacTiterGlo, counter-screen for streptokinase expression inhibitor project, dose response (AID 1915).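 Further: potency for reduction of bacterial viability or growth.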 Format: functional, organism-based.
The next experiment concerns the target Beta-galactosidase (Escherichia coli, UniProt Q8VNN2). The experiment can be described thus: PubChem AID 485352. Format: functional.
The target in another experiment is T2, Streptokinase A (Streptococcus pyogenes serotype M1, UniProt P10520).
T2 sequence (P10520 whole entry): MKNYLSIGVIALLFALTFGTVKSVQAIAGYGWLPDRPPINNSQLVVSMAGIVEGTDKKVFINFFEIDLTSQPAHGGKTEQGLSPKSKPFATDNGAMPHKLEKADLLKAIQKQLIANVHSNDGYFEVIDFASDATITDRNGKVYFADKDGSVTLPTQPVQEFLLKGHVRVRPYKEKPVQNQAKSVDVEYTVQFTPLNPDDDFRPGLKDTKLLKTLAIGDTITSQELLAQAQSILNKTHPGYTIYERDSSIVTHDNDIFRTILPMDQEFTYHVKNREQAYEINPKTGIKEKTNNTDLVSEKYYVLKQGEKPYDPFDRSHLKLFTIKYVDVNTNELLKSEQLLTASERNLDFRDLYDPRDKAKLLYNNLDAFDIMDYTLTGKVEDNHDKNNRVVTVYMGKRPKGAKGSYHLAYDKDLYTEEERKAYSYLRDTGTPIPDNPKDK
The experiment can be described thus: viability-normalized secreted streptokinase activity reduction – plasminogen activation absorbance, OD405, dose response (AID 1914).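 Further: secreted streptokinase activity via plasminogen activation per viability signal from cell pellet.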 Format: functional, Streptococcus pyogenes M1 GAS.

The target in experiment [5] is Glucose-6-phosphate 1-dehydrogenase (Homo sapiens, UniProt P11413). Briefly: inhibition of Homo sapiens G6PD, dose series – biochemical, fluorescence, selectivity assay for P. falciparum G6PD inhibitor project, dose response (AID 504792). Type of experiment: functional.
The nature of experiment [6]: reduction of Shn3 3'UTR-driven luciferase in osteoblasts – cell-based, Clone20 osteoblasts, firefly luciferase, cherry-picked, dose response (AID 624132).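 Further: firefly luciferase luminescence from reporter carrying the Shn3 3'UTR in osteoblasts.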 Format: functional.
The target in experiment [7] is T3, Type-1 angiotensin II receptor (Homo sapiens, UniProt P30556).
T3 sequence (P30556 whole entry): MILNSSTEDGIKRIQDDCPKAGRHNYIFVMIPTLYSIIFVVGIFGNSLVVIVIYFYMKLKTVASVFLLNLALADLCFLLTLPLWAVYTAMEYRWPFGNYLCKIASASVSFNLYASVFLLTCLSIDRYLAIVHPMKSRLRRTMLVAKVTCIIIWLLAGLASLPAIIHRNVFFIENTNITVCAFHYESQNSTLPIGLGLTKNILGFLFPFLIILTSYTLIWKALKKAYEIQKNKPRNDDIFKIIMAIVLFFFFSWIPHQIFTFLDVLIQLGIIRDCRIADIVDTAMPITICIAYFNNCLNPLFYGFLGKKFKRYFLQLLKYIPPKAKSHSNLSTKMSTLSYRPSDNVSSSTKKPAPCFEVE
Briefly: antagonism of angiotensin II type 1 receptor – cell-based, uHTS hits, selectivity assay for APJ receptor antagonist project, dose response (AID 463214).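 Further: antagonist potency against angiotensin II stimulated AT1 response.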 Format: functional.

For experiment [8], the target named is T1, Fatty acid synthase. The experiment can be described thus: inhibition of human FAS-TE enzyme activity – biochemical, kinetic fluorescence intensity, dose response (AID 624326).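 Further: rate of fluorescence rise from hydrolysis of a fluorogenic O-methyl fluorescein ester substrate.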 Format: functional.
The nature of experiment [9]: non-specific 3'UTR reporter inhibition in Clone20-Shn3RL – cell-based, Renilla luciferase, cherry-picked, counter-screen for Shn3 inhibitor project, dose response (AID 624133). Type of experiment: functional.
Experiment [10] in a line: Trypanosoma cruzi growth suppression in host cells – NIH3T3 host cells, beta-gal luminescence, confirmation (AID 2044).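 Further: intracellular parasites grown in NIH/3T3 mouse fibroblasts as host cells; luminescent beta-galactosidase reporter signal from transgenic T. cruzi replicating inside host cells; inhibitors lower the luminescence signal.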 Type of experiment: functional, cell-based.
In experiment [11] the test system is Streptococcus sp. 'group A'. The experiment can be described thus: Streptococcus pyogenes SK(-)GAS viability under kanamycin – luminescence, BacTiterGlo, confirmation, counter-screen for streptokinase expression inhibitor project, dose response (AID 1900). Type of experiment: functional, organism-based.
In a further experiment the target is Genome polyprotein (dengue virus type 2, UniProt P29990). The experiment can be described thus: flavivirus cap methylation enzyme inhibition – biochemical, confirmation dose response, primary screen (AID 588689). Format: functional.
For the next experiment, the system named is HEK293. The experiment can be described thus: HEK293T cell viability loss, resazurin readout – resazurin fluorescence, cytotoxicity control for NF-kB activator project, SAR follow-up (AID 493251). Format: functional, cell-based. The following applies: Homo sapiens. (In general: The colour change of resazurin is a common sign of viable cells or microbes.)

Experiment [12] relates to Vero. The experiment can be described thus: cells. Type of experiment: functional, cell-based. The following applies: Chlorocebus sabaeus.

Molecules are shown by their SMILES. Active and inactive are the calls of the source.

T1 sequence (P49327 whole entry): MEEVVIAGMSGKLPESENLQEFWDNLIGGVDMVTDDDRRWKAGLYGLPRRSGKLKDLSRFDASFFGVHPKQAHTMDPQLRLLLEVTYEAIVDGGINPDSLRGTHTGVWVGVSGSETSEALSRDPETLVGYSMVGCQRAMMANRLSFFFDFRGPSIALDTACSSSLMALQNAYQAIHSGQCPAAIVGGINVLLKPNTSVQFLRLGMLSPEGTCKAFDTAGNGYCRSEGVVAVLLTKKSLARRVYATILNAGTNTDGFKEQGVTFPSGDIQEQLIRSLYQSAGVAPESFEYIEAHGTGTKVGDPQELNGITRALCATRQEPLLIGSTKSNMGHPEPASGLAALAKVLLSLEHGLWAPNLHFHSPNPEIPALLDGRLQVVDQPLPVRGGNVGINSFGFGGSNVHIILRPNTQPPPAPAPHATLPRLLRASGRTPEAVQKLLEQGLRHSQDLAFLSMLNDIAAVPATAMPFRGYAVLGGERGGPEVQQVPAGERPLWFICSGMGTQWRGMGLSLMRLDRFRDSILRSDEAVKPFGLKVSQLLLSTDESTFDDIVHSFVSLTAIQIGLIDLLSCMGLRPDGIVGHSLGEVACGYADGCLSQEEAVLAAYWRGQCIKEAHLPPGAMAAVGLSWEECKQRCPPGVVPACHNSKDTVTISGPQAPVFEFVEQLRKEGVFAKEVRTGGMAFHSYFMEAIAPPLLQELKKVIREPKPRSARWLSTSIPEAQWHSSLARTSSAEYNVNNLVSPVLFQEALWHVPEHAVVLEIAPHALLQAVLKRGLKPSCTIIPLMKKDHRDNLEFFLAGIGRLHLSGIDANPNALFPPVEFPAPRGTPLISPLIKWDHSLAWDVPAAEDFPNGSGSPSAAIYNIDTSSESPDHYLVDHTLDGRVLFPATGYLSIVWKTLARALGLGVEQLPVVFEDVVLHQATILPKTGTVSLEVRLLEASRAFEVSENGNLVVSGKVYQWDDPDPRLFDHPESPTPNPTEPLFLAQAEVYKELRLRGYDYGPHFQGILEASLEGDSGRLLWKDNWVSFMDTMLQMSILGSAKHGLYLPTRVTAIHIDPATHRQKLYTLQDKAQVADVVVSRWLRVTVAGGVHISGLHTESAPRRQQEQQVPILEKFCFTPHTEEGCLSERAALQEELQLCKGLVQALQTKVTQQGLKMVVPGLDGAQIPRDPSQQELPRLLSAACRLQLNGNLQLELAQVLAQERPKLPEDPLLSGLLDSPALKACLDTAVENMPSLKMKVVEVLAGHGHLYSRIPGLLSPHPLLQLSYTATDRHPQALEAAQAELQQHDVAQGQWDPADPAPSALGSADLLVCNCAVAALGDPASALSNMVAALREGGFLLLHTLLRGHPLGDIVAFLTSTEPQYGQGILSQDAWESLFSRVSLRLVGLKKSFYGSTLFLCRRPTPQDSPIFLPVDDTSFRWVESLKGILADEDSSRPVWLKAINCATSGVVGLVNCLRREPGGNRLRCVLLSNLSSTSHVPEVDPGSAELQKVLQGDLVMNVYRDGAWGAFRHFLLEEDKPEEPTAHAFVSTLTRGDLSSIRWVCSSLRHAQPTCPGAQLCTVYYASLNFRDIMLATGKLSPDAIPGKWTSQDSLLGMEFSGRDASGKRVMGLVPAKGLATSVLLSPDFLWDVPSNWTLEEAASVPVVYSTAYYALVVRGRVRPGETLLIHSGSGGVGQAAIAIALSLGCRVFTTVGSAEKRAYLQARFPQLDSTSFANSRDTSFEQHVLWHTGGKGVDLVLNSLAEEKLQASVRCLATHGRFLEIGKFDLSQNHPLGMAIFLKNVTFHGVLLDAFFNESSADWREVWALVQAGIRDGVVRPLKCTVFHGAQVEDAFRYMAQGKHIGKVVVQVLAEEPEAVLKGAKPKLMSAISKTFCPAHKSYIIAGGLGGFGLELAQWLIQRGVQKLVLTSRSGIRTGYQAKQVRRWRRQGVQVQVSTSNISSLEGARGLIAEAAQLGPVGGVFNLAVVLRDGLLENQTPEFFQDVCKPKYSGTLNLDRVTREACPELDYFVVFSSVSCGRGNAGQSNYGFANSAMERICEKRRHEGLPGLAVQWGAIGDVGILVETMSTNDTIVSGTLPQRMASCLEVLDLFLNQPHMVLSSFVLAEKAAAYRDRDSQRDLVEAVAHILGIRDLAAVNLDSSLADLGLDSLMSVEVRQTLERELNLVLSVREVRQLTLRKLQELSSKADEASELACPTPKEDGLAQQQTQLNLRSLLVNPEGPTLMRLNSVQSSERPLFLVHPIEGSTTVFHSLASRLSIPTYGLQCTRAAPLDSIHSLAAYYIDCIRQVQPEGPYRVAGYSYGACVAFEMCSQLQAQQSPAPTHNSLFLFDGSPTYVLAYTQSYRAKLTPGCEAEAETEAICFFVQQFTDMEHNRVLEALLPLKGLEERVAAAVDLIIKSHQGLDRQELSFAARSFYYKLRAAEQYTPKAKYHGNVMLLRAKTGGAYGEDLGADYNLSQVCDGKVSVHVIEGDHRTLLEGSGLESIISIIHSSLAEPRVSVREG
Glucose-6-phosphate 1-dehydrogenase, sequence (P11413 whole entry): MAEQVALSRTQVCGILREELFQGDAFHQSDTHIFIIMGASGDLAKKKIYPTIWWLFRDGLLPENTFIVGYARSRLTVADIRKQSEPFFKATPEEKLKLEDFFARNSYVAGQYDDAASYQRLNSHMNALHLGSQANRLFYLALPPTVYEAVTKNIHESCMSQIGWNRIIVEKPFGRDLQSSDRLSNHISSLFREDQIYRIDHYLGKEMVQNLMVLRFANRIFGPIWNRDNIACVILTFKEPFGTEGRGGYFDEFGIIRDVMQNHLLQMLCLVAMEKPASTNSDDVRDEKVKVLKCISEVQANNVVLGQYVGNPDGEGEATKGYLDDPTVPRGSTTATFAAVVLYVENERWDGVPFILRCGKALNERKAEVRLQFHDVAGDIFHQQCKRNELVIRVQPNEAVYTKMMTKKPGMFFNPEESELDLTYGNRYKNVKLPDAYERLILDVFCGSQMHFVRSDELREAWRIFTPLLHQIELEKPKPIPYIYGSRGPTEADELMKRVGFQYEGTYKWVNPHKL
Beta-galactosidase, sequence (Q8VNN2 whole entry): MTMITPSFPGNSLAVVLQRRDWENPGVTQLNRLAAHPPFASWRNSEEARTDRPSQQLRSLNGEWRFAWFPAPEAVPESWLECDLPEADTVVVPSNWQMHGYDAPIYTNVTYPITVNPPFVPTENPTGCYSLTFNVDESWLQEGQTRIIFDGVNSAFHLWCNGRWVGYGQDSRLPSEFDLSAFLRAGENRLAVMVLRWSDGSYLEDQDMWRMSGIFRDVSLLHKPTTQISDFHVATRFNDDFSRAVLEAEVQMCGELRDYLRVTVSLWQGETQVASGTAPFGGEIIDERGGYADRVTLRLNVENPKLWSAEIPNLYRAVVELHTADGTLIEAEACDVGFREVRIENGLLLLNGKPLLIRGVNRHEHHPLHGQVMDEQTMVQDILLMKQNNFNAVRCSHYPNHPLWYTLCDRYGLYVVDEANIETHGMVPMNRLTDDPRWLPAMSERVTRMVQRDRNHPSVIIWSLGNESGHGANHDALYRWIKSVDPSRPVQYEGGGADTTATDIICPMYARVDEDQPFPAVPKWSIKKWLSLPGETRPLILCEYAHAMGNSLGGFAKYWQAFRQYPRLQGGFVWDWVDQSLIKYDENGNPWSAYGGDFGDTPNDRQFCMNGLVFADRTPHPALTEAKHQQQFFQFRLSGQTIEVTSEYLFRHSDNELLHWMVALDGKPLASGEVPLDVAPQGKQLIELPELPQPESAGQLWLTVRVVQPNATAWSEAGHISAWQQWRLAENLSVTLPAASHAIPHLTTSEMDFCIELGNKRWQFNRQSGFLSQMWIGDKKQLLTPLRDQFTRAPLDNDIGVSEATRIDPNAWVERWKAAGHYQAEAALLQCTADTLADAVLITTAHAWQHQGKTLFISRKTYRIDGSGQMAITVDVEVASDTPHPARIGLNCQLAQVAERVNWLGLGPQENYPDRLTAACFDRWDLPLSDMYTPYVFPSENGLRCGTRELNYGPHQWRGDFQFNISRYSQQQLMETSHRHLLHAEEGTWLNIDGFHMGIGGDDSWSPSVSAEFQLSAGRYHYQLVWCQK
Genome polyprotein, sequence (P29990 2492-3391 limits assumed): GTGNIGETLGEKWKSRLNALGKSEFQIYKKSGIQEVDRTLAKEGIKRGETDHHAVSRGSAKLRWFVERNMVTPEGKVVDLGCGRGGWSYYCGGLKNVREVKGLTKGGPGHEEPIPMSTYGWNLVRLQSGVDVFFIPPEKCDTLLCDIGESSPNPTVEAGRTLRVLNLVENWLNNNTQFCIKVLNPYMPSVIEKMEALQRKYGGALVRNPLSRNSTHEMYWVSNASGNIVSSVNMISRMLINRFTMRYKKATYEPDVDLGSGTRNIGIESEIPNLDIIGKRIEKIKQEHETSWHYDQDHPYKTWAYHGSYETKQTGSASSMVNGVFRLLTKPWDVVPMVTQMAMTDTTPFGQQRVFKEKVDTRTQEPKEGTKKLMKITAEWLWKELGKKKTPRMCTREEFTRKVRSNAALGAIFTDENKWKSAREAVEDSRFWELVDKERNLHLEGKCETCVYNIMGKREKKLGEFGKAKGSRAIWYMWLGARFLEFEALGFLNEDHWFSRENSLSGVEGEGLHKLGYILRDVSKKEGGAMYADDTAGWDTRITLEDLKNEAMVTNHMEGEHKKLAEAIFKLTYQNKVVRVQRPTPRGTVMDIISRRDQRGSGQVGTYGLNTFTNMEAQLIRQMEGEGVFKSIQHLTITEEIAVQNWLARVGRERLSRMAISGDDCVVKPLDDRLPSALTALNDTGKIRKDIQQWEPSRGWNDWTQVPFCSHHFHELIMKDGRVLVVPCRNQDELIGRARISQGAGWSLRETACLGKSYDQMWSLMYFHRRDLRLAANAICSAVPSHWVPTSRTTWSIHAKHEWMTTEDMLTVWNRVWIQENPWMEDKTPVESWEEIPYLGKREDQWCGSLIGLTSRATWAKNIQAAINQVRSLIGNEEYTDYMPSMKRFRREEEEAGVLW

On to `Cc1ccc2nc3c(C(=O)NCCN(C)C)cccc3cc2c1`, for which the GI50 – broadly, the concentration at which growth is held to half of that of the control – in the experiment on P388/ADR was 1.85 µM (inactive); with P388, 0.414 µM (active); in the experiment with SN12K1, 0.968 µM (active).
Regarding `CC(=O)OCCCNc1cc(Sc2nc3ccccc3s2)c2nonc2c1[N+](=O)[O-]`, in the experiment with Vero [1], the half-maximal cytotoxic concentration (CC50) – broadly, the concentration at which the toxic effect on the cells reaches its halfway point – was 16.8 µM (active). Further, the half-maximal inhibitory concentration (IC50) (commonly the point on the concentration scale where inhibition reaches its midpoint) at Fatty acid synthase [2] is 2.08 µM (active); in [5] it was > 80 µM (inactive); in experiment [7] it was 2.06 µM (active); on Fatty acid synthase [8], 1.35 µM (active); on Genome polyprotein it was > 100 µM (active). For the same molecule, the concentration giving a half-maximal response (EC50) (as a rule, the concentration that produces a half-maximal response) in [3] is 4.76 µM (active); in the experiment on Streptococcus it was 3.7 µM (active); on Beta-galactosidase it was > 40 µM (inactive); on Streptokinase A it was > 150 µM (not active); in experiment [10], 1.38 µM (active); in experiment [11], 3.26 µM (active). Besides, the AC50 (as a rule, the concentration at which the activity in the assay is half-maximal) is 24.4 µM (active) in experiment [4], 4.7 µM (active) in [6] and 11.3 µM (active) in experiment [9].
Take `COc1ccc(-c2nc(CSCC(=O)NC3CC3)c(C)o2)cc1`: in the experiment on HEK293, the IC50 was > 80 µM (inactive).
Consider `CC(C)(C)c1ccc(C(=O)NC(=S)Nc2sc3c(c2C#N)CCC3)cc1`, for which the 50% inhibitory concentration (IC50) in the experiment on Vero [12] is > 25 µM (active).
